Assay: Cytotoxicity against human MCF7/DX cells incubated for 48 hrs by MTT assay
Assay type: cell-based

Compound	IC50 [µM]
C=C[C@@]1(CCC=C(C)C)C[C@@H](CC(C)C)C2=C(O1)C(C)(C)C(=O)C(C)(C)C2=O	> 30
Cc1ccc2c(c1)[C@H](C(C)C)CC[C@]21C[C@H](CC(C)C)C2=C(O1)C(C)(C)C(=O)C(C)(C)C2=O	> 30
CC(C)C[C@H]1C[C@]2(CC[C@]3(C(C)C)C[C@H]23)OC2=C1C(=O)C(C)(C)C(=O)C2(C)C	> 30
CC(C)C[C@@H]1C[C@]2(CC[C@]3(C(C)C)C[C@H]23)OC2=C1C(=O)C(C)(C)C(=O)C2(C)C	> 30
C=C[C@@]1(CCC=C(C)C)C[C@H](CC(C)C)C2=C(O1)C(C)(C)C(=O)C(C)(C)C2=O	> 30
CC(C)C[C@@H]1C[C@@]2(CC[C@]3(C(C)C)C[C@H]23)OC2=C1C(=O)C(C)(C)C(=O)C2(C)C	> 30
CC(C)C[C@H]1C[C@@]2(CC[C@]3(C(C)C)C[C@H]23)OC2=C1C(=O)C(C)(C)C(=O)C2(C)C	> 30
C=C[C@]1(CCC=C(C)C)C[C@@H](CC(C)C)C2=C(O1)C(C)(C)C(=O)C(C)(C)C2=O	> 30
C=C[C@]1(CCC=C(C)C)C[C@H](CC(C)C)C2=C(O1)C(C)(C)C(=O)C(C)(C)C2=O	> 30

Assay: Reversal of multidrug resistance in human MCF7/DX cells assessed as potentiation doxorubicin-induced cytotoxicity by measuring reduction in doxorubicin IC50 level at 5 uM incubated for 48 hrs by MTT assay relative to untreated control
Assay type: functional

Compound	fold change (FC)
COc1ccc(CCN(C)CCCC(C#N)(c2ccc(OC)c(OC)c2)C(C)C)cc1OC (centres undefined)	5.4

Assay: Reversal of multidrug resistance in human MCF7/DX cells assessed as potentiation doxorubicin-induced cytotoxicity by measuring reduction in doxorubicin IC50 level at 30 uM incubated for 48 hrs by MTT assay relative to untreated control
Assay type: functional

Compound	fold change (FC)
C=C[C@@]1(CCC=C(C)C)C[C@@H](CC(C)C)C2=C(O1)C(C)(C)C(=O)C(C)(C)C2=O	4.7
Cc1ccc2c(c1)[C@H](C(C)C)CC[C@]21C[C@H](CC(C)C)C2=C(O1)C(C)(C)C(=O)C(C)(C)C2=O	0.9
CC(C)C[C@H]1C[C@]2(CC[C@]3(C(C)C)C[C@H]23)OC2=C1C(=O)C(C)(C)C(=O)C2(C)C	5.6
CC(C)C[C@@H]1C[C@]2(CC[C@]3(C(C)C)C[C@H]23)OC2=C1C(=O)C(C)(C)C(=O)C2(C)C	1.2
C=C[C@@]1(CCC=C(C)C)C[C@H](CC(C)C)C2=C(O1)C(C)(C)C(=O)C(C)(C)C2=O	10.1
CC(C)C[C@@H]1C[C@@]2(CC[C@]3(C(C)C)C[C@H]23)OC2=C1C(=O)C(C)(C)C(=O)C2(C)C	4.5
CC(C)C[C@H]1C[C@@]2(CC[C@]3(C(C)C)C[C@H]23)OC2=C1C(=O)C(C)(C)C(=O)C2(C)C	1
C=C[C@]1(CCC=C(C)C)C[C@@H](CC(C)C)C2=C(O1)C(C)(C)C(=O)C(C)(C)C2=O	7.4
C=C[C@]1(CCC=C(C)C)C[C@H](CC(C)C)C2=C(O1)C(C)(C)C(=O)C(C)(C)C2=O	16.5

Reference: ChEMBL document CHEMBL4043070, “Isolation, Structure Elucidation, and Absolute Configuration of Syncarpic Acid-Conjugated Terpenoids from Rhodomyrtus tomentosa” (J Nat Prod, 2017)
